Laboratory results: ChEMBL document CHEMBL4665820, “Discovery of VU6027459: A First-in-Class Selective and CNS Penetrant mGlu Positive Allosteric Modulator Tool Compound” (ACS Med Chem Lett, 2020)

Assays:
[1] = molecular target: Metabotropic glutamate receptor 8 (Homo sapiens, UniProt O00222); experiment: Positive allosteric modulation of mGlu8 receptor (unknown origin)
[2] = molecular target: Metabotropic glutamate receptor 4 (Homo sapiens, UniProt Q14833); experiment: Positive allosteric modulation of mGlu4 receptor (unknown origin)
[3] = molecular target: Metabotropic glutamate receptor 3 (Homo sapiens, UniProt Q14832); experiment: Positive allosteric modulation of mGlu3 receptor (unknown origin)
[4] = molecular target: Metabotropic glutamate receptor 5 (Homo sapiens, UniProt P41594); experiment: Positive allosteric modulation of mGlu5 receptor (unknown origin)
Sequence of Metabotropic glutamate receptor 5 (P41594 whole entry): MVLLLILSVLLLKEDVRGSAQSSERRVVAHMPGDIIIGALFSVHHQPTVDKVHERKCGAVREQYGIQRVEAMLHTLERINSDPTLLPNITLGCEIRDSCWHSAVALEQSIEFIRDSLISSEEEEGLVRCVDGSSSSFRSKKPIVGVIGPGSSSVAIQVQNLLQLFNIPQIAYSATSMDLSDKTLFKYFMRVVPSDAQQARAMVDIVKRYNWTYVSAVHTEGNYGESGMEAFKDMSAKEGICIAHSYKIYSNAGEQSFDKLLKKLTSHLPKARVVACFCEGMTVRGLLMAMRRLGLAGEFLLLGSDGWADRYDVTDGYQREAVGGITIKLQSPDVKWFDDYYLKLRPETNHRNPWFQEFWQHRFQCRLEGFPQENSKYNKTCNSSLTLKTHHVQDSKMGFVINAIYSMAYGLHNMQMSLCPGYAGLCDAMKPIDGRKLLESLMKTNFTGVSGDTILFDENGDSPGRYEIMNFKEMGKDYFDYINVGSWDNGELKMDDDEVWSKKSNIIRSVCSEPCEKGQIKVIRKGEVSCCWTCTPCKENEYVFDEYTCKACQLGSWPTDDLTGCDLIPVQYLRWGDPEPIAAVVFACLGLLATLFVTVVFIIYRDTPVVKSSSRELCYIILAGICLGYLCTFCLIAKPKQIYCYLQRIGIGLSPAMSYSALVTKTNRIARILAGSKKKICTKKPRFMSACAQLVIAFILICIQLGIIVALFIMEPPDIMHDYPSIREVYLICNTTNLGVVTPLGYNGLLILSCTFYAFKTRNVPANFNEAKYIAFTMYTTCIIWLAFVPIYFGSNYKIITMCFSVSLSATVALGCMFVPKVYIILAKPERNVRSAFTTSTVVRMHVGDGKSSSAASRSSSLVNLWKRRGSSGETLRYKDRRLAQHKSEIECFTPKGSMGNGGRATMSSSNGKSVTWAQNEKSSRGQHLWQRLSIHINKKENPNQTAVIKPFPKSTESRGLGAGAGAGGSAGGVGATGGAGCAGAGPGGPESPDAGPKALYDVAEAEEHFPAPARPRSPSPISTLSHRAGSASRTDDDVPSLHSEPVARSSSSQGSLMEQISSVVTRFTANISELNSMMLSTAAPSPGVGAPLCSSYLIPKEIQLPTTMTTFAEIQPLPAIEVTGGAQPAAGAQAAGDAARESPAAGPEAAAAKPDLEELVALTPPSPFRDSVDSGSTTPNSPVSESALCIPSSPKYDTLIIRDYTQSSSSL

[5] = Plasma to brain permeability coefficient, Kp of the compound in CD-1 mouse at 10 mg/kg, ip measured after 0.5 hrs by LC-MS/MS analysis; type: ADME, organism-based
[6] = Fraction unbound in mouse brain at 5 uM incubated for 6 hrs by equilibrium dialysis based LC-MS/MS analysis; type: ADME, tissue-based
[7] = Unbound plasma to brain permeability coefficient, Kp of the compound in Sprague-Dawley rat at 0.2 mg/kg, iv measured after 0.25 hrs by LC-MS/MS analysis; type: ADME, organism-based; settings: read-out: K(p,uu,brain)
[8] = Fraction unbound in rat plasma at 5 uM incubated for 4 hrs by equilibrium dialysis based LC-MS/MS analysis; type: ADME, cell-free
[9] = molecular target: Sodium-dependent dopamine transporter (Homo sapiens, UniProt Q01959); experiment: Displacement of […] from recombinant human Dopamine transporter after 120 mins by scintillation counting analysis; type: ADME
[10] = Hepatic intrinsic clearance in rat liver microsomes at 1 uM preincubated for 5 mins followed by NADPH addition and measured up to 45 mins by LC-MS/MS analysis; type: ADME, Microsome; settings: read-out: CLH
[11] = Half-life in Sprague-Dawley rat at 1 mg/kg, iv and 10 mg/kg, po measured up to 24 hrs by LC-MS/MS analysis; type: ADME, organism-based; settings: in vivo
[12] = molecular target: Metabotropic glutamate receptor 2 (Homo sapiens, UniProt Q14416); experiment: Positive allosteric modulation of mGlu2 receptor (unknown origin)
[13] = Fraction unbound in rat brain at 5 uM incubated for 6 hrs by equilibrium dialysis based LC-MS/MS analysis; type: ADME, tissue-based
[14] = molecular target: T1, Metabotropic glutamate receptor 7 (Rattus norvegicus, UniProt P35400); experiment: Positive allosteric modulation of rat mGlu7 receptor expressed in HEK293 cells co-expressing Gai5 assessed as potentiation of L-AP4-induced calcium mobilization preincubated for 140 secs and treated with EC20 L-AP4 for 125 secs and followed by subsequent addition of EC80 L-AP4 by Fluo-4-AM dye based fluorescence assay; type: functional, cell-based
T1 sequence (P35400 whole entry): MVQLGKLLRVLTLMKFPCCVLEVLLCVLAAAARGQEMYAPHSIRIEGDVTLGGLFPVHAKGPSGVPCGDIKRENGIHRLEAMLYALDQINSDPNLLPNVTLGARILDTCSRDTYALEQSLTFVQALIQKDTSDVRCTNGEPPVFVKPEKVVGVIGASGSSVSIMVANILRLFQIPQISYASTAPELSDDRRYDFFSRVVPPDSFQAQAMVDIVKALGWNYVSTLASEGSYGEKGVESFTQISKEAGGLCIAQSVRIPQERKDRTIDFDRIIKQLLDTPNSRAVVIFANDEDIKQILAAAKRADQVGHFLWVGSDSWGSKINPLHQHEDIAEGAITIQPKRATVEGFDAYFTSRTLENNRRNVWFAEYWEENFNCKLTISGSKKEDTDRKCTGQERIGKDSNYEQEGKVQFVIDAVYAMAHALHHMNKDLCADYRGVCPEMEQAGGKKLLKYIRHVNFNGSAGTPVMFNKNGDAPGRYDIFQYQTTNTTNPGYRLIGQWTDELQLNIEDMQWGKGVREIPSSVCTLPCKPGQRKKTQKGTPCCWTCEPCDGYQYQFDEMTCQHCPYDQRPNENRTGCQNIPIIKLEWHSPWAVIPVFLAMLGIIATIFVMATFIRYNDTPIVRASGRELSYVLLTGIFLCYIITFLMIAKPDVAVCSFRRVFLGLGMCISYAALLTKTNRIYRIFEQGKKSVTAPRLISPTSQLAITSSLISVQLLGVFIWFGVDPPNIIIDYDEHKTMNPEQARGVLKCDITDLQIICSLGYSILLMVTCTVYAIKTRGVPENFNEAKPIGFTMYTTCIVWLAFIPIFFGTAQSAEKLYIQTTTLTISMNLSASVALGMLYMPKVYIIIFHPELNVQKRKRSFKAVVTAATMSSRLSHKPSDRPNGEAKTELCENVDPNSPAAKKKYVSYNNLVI

[15] = molecular target: dopamine transporter (DAT) (Homo sapiens, UniProt Q01959); experiment: Displacement of […] from recombinant human Dopamine transporter at 10 uM after 120 mins by scintillation counting analysis relative to control; type: ADME
[16] = molecular target: Sigma non-opioid intracellular receptor 1 (Homo sapiens, UniProt Q99720); experiment: Displacement of [3H]-Pentazocine from human recombinant sigma 1 receptor incubated for 120 mins by scintillation counting analysis relative to control
Sequence of Sigma non-opioid intracellular receptor 1 (Q99720 whole entry): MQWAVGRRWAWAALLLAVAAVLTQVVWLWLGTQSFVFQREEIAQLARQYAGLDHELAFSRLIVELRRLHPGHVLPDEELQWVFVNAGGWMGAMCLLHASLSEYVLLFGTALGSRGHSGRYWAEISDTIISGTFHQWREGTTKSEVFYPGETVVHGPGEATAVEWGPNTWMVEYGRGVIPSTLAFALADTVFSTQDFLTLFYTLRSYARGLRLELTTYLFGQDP

[17] = molecular target: T1, Metabotropic glutamate receptor 7; experiment: Positive allosteric modulation of rat mGlu7 expressed in HEK293 cells co- expressing GIRK assessed as potentiation of L-AP4-induced thallium flux incubated for 140 sec by FluoZin2-AM dye based fluorescence analysis; type: cell-based
[18] = Oral bioavailability in Sprague-Dawley rat at 10 mg/kg measured upto 24 hrs by LC-MS/MS analysis; type: ADME, organism-based; settings: in vivo
[19] = Plasma to brain permeability coefficient, Kp of the compound in Sprague-Dawley rat at 0.2 mg/kg, iv measured after 0.25 hrs by LC-MS/MS analysis; type: ADME, organism-based
[20] = Unbound plasma to brain permeability coefficient, Kp of the compound in CD-1 mouse at 10 mg/kg, ip measured after 0.5 hrs by LC-MS/MS analysis; type: ADME, organism-based; settings: read-out: K(p,uu,brain)
[21] = Hepatic intrinsic clearance in mouse liver microsomes at 1 uM preincubated for 5 mins followed by NADPH addition and measured up to 45 mins by LC-MS/MS analysis; type: ADME, Microsome; settings: read-out: CLH
[22] = molecular target: Metabotropic glutamate receptor 1 (Homo sapiens, UniProt Q13255); experiment: Positive allosteric modulation of mGlu1 receptor (unknown origin)
Sequence of Metabotropic glutamate receptor 1 (Q13255 whole entry): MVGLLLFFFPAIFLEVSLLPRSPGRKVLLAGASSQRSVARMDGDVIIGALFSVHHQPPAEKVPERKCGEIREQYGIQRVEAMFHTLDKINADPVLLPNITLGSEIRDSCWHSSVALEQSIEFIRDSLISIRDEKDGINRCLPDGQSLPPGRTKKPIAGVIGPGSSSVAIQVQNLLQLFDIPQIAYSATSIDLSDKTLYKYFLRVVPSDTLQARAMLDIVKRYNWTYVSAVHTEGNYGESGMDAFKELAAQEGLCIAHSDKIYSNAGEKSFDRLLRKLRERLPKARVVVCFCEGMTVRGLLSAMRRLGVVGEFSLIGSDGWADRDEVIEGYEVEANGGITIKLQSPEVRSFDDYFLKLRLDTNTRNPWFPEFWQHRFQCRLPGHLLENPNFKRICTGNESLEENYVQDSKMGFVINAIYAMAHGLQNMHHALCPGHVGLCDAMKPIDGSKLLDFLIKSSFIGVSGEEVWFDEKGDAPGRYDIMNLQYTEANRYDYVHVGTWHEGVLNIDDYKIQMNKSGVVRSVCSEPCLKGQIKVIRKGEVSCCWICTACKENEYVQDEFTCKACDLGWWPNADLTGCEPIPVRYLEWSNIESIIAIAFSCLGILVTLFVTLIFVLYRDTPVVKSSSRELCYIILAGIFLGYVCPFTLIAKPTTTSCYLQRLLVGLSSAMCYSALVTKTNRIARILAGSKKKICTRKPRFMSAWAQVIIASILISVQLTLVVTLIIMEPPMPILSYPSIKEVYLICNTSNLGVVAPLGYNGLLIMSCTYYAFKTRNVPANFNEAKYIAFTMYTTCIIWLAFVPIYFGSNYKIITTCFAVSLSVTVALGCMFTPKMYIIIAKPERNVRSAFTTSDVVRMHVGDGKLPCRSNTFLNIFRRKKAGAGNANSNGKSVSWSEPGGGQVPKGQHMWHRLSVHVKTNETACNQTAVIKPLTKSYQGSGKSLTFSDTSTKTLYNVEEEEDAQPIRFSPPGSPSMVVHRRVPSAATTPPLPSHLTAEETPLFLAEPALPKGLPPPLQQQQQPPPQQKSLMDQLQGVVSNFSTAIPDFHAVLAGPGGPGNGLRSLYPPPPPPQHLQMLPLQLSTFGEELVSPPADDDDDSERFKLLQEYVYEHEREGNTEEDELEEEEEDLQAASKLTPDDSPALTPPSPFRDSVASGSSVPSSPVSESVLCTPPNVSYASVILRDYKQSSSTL

[23] = Fraction unbound in mouse plasma at 5 uM incubated for 4 hrs by equilibrium dialysis based LC-MS/MS analysis; type: ADME, cell-free
[24] = molecular target: hERG (KCNH2) (Homo sapiens, UniProt Q12809); experiment: Displacement of [3H]-Astemizole from human recombinant full length ERG channel at 10 uM incubated for 60 mins by scintillation counting analysis relative to control; settings: probe [3H]-astemizole
Sequence of hERG (KCNH2) (Q12809 whole entry): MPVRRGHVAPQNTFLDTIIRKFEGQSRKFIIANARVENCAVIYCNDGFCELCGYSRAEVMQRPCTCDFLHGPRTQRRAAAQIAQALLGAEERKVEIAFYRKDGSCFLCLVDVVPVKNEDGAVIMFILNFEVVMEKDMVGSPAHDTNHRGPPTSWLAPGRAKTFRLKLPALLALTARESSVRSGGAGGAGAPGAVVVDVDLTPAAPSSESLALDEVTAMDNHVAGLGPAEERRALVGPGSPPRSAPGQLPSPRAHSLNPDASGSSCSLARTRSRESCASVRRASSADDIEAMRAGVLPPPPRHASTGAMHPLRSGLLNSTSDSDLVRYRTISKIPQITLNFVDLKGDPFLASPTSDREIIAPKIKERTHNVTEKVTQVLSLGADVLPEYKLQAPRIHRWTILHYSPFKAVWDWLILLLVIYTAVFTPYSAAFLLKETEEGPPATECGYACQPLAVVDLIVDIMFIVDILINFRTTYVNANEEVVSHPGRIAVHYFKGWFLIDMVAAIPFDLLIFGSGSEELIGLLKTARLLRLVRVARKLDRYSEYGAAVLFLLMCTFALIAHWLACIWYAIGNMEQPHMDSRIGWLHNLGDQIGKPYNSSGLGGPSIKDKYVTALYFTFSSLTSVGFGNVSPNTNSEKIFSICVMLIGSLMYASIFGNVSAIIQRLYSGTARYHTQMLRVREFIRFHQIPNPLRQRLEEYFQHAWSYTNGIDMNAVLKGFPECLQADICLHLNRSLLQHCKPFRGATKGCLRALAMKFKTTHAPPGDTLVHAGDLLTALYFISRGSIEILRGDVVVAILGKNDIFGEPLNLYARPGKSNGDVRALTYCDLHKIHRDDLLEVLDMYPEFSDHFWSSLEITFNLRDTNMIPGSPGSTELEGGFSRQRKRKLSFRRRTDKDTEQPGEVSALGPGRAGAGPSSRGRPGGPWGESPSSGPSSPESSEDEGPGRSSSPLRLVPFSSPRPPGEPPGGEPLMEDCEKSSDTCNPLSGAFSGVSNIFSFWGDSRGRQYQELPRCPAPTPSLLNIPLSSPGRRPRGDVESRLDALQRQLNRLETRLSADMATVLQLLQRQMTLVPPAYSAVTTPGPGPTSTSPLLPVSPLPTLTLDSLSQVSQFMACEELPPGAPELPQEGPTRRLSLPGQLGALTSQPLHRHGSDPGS

In the case of [2H]C([2H])([2H])Oc1cc(F)cc2c(N3CCN(c4ccccc4F)CC3)c(C#N)cnc12, the EC50 [1] is reported as > 10 µM, the EC50 [2] is reported as > 30 µM and the EC50 [3] is reported as > 30 µM. For the same compound, the EC50 [4] was > 30 µM, the Kp at 0.5 h [5] was 2.74 and the fraction unbound at 6 h, 5 µM [6] was 0.001. The Kp uu at 0.25 h [7] was 0.96, the fraction unbound at 4 h, 5 µM [8] was 0.01 and the Ki [9] was > 10 µM. For the same compound, the CLint scaled at 1 µM [10] was 46.9 mL/min/kg, the half-life [11] was 7.5 h and the EC50 [12] was > 30 µM. The fraction unbound at 6 h, 5 µM [13] was 0.002, the EC50 ([14]; read-out: EC50) was 1.1 µM and the EC50 ([14]; read-out: pEC50 (converted)) was 1.58 µM. The inhibition at 2 h, 10 µM [15] was < 50%, the IC50 [16] was 3.5 µM and the EC50 [17] was 0.99 µM. For the same compound, the bioavailability [18] was 69.5%, the Kp at 0.25 h [19] was 4.78 and the Kp uu at 0.5 h [20] was 0.23. The CLint scaled at 1 µM [21] was 84.4 mL/min/kg, the EC50 [22] was > 30 µM and the fraction unbound at 4 h, 5 µM [23] was 0.01. The inhibition at 1 h, 10 µM [24] was < 50%.
